Results reported in ChEMBL document CHEMBL4052635, “Discovery of novel antitumor nitric oxide-donating β-elemene hybrids through inhibiting the PI3K/Akt pathway” (Eur J Med Chem, 2017).
Calls of active or inactive are those of the source. No cut-off for these calls is given here.

Columns and labels:
SGC-7901 = assay: Antiproliferative activity against human SGC7901 cells after 72 hrs by MTT assay; type: functional, cell-based; settings: SGC-7901, 72 h
[1] = Antiproliferative activity against human U87 cells after 72 hrs by MTT assay; type: functional, cell-based, U-87MG ATCC; settings: U-87 MG
HeLa = assay: Antiproliferative activity against human HeLa cells after 72 hrs by MTT assay; type: functional, cell-based
[2] = Induction of NO production at 100 uM in presence of 5.0 mM L-cysteine incubated for 120 mins measured every 15 mins by Griess assay
[3] = Induction of apoptosis in human U87 cells assessed as late apoptotic cells at 0.5 nM measured after 72 hrs by Annexin V-APC/7-AAD staining based flow cytometry (reference value: 3.02%); type: functional, U-87MG ATCC
[4] = Cell cycle arrest in human U87 cells assessed as accumulation at G2 phase at 2 nM after 72 hrs by propidium iodide staining based flow cytometry (reference value: 18.86%); type: functional, U-87MG ATCC
[5] = Induction of apoptosis in human U87 cells assessed as necrotic cells at 1 nM measured after 72 hrs by Annexin V-APC/7-AAD staining based flow cytometry (reference value: 0.44%); type: functional, U-87MG ATCC
[6] = Cell cycle arrest in human U87 cells assessed as accumulation at S phase at 1 nM after 72 hrs by propidium iodide staining based flow cytometry (reference value: 27.03%); type: functional, U-87MG ATCC
H22 [7] = assay: Antitumor activity against […] cells xenografted in ICR mouse assessed as tumor growth inhibition at 60 mg/kg, iv qd for 3 weeks relative to control; type: functional; settings: 504 h, read-out: TGI
[8] = Cell cycle arrest in human U87 cells assessed as accumulation at S phase at 2 nM after 72 hrs by propidium iodide staining based flow cytometry (reference value: 27.03%); type: functional, U-87MG ATCC
[9] = target: RAC-alpha serine/threonine-protein kinase (Homo sapiens) (UniProt P31749); assay: Inhibition of Akt phosphorylation in human U87 cells after 72 hrs by Western blot method; type: cell-based
Sequence of RAC-alpha serine/threonine-protein kinase (Homo sapiens) (P31749 whole entry): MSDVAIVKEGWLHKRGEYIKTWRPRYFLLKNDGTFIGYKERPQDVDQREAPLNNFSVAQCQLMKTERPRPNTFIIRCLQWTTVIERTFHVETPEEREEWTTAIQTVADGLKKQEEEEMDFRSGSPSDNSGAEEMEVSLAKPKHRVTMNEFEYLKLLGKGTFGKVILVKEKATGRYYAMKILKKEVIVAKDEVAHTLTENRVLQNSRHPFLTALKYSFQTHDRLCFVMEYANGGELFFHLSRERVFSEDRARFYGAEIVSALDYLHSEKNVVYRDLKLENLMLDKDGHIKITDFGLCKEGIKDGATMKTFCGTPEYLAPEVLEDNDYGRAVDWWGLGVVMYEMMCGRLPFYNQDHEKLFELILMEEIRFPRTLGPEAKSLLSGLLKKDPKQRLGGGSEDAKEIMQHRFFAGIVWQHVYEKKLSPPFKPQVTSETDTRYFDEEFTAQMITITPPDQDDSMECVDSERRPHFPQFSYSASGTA

[10] = Induction of apoptosis in human U87 cells assessed as early apoptotic cells at 0.5 nM measured after 72 hrs by Annexin V-APC/7-AAD staining based flow cytometry (reference value: 3.82%); type: functional, U-87MG ATCC
L02 = assay: Cytotoxicity against human LO2 cells assessed as reduction in cell viability after 72 hrs by MTT assay; type: cell-based; settings: L02, 72 h
[11] = Induction of apoptosis in human U87 cells assessed as viable cells at 0.5 nM measured after 72 hrs by Annexin V-APC/7-AAD staining based flow cytometry (reference value: 92.71%); type: functional, U-87MG ATCC; settings: U-87 MG, read-out: Activity
[12] = Cell cycle arrest in human U87 cells assessed as accumulation at G2 phase at 1 nM after 72 hrs by propidium iodide staining based flow cytometry (reference value: 18.86%); type: functional, U-87MG ATCC
Homo sapiens [13] = species: Homo sapiens; assay: Inhibition of PI3K/Akt activation in human U87 cells assessed as increase in caspase-3 level after 72 hrs by Western blot method; type: cell-based
Homo sapiens [14] = species: Homo sapiens; assay: Inhibition of PI3K/Akt activation in human U87 cells assessed as decrease in Bcl-2 protein expression after 72 hrs by Western blot method; type: cell-based
[15] = Cell cycle arrest in human U87 cells assessed as accumulation at G1 phase at 2 nM after 72 hrs by propidium iodide staining based flow cytometry (reference value: 54.11%); type: functional, U-87MG ATCC
U-87MG ATCC = assay: Antiproliferative activity against human U87 cells after 72 hrs in presence of NO scavenger hemoglobin/PTIO by MTT assay; type: functional, cell-based
[16] = Induction of apoptosis in human U87 cells assessed as viable cells at 2 nM measured after 72 hrs by Annexin V-APC/7-AAD staining based flow cytometry (reference value: 92.71%); type: functional, U-87MG ATCC; settings: U-87 MG, read-out: Activity
Mus musculus [17] = assay: Toxicity in ICR mouse xenografted with […] cells assessed as body weight at 30 mg/kg, iv administered qd for 3 weeks (reference value: 22.9 +/- 0.4 g); type: organism-based; settings: in vivo, 504 h
[18] = Induction of apoptosis in human U87 cells assessed as viable cells at 1 nM measured after 72 hrs by Annexin V-APC/7-AAD staining based flow cytometry (reference value: 92.71%); type: functional, U-87MG ATCC; settings: U-87 MG, read-out: Activity
H22 [19] = assay: Antitumor activity against […] cells xenografted in iv dosed ICR mouse assessed as tumor growth inhibition administered qd for 3 weeks; type: functional, organism-based
[20] = Induction of apoptosis in human U87 cells assessed as late apoptotic cells at 1 nM measured after 72 hrs by Annexin V-APC/7-AAD staining based flow cytometry (reference value: 3.02%); type: functional, U-87MG ATCC
[21] = Induction of apoptosis in human U87 cells assessed as necrotic cells at 2 nM measured after 72 hrs by Annexin V-APC/7-AAD staining based flow cytometry (reference value: 0.44%); type: functional, U-87MG ATCC
[22] = Induction of apoptosis in human U87 cells assessed as early apoptotic cells at 1 nM measured after 72 hrs by Annexin V-APC/7-AAD staining based flow cytometry (reference value: 3.82%); type: functional, U-87MG ATCC
Mus musculus [23] = assay: Toxicity in ICR mouse xenografted with […] cells assessed as body weight at 60 mg/kg, iv administered qd for 3 weeks (reference value: 22.9 +/- 0.4 g); type: organism-based; settings: in vivo, 504 h
[24] = Cell cycle arrest in human U87 cells assessed as accumulation at G1 phase at 0.5 nM after 72 hrs by propidium iodide staining based flow cytometry (reference value: 54.11%); type: functional, U-87MG ATCC
[25] = Induction of apoptosis in human U87 cells assessed as necrotic cells at 0.5 nM measured after 72 hrs by Annexin V-APC/7-AAD staining based flow cytometry (reference value: 0.44%); type: functional, U-87MG ATCC
[26] = Cell cycle arrest in human U87 cells assessed as accumulation at G1 phase at 1 nM after 72 hrs by propidium iodide staining based flow cytometry (reference value: 54.11%); type: functional, U-87MG ATCC
[27] = Cell cycle arrest in human U87 cells assessed as accumulation at G2 phase at 0.5 nM after 72 hrs by propidium iodide staining based flow cytometry (reference value: 18.86%); type: functional, U-87MG ATCC
Homo sapiens [28] = species: Homo sapiens; assay: Inhibition of PI3K/Akt activation in human U87 cells assessed as increase in pro-apoptotic Bax protein expression after 72 hrs by Western blot method; type: cell-based
H22 [29] = assay: Antitumor activity against […] cells xenografted in ICR mouse assessed as tumor growth inhibition at 30 mg/kg, iv qd for 3 weeks relative to control; type: functional; settings: 504 h, read-out: TGI
[30] = Cell cycle arrest in human U87 cells assessed as accumulation at S phase at 0.5 nM after 72 hrs by propidium iodide staining based flow cytometry (reference value: 27.03%); type: functional, U-87MG ATCC
[31] = Induction of apoptosis in human U87 cells assessed as late apoptotic cells at 2 nM measured after 72 hrs by Annexin V-APC/7-AAD staining based flow cytometry (reference value: 3.02%); type: functional, U-87MG ATCC
[32] = Induction of apoptosis in human U87 cells assessed as early apoptotic cells at 2 nM measured after 72 hrs by Annexin V-APC/7-AAD staining based flow cytometry (reference value: 3.82%); type: functional, U-87MG ATCC

## C=C[C@]1(C)CC[C@@H](C(=C)COC(=O)[C@@H](N)CC(=O)OCCCCOc2no[n+]([O-])c2S(=O)(=O)c2ccccc2)C[C@H]1C(=C)C
SGC-7901
  IC50: 2.92 µM
[1]
  IC50: 0.124 µM
HeLa
  IC50: 3.64 µM
[2]
  Activity: Active

## C=C[C@]1(C)CC[C@@H](C(=C)CO)C[C@H]1C(=C)C
[1]
  IC50: 198 µM

## C=C[C@]1(C)CC[C@@H](C(=C)COC(=O)CCNC(=O)CCC(=O)OCCCCOc2no[n+]([O-])c2S(=O)(=O)c2ccccc2)C[C@H]1C(=C)C
SGC-7901
  IC50: 7.78 µM
[1]
  IC50: 0.058 µM
HeLa
  IC50: 8.86 µM

## C=C[C@]1(C)CC[C@@H](C(=C)COC(=O)c2ccccc2C(=O)OCCCCOc2no[n+]([O-])c2S(=O)(=O)c2ccccc2)C[C@H]1C(=C)C
SGC-7901
  IC50: 27.8 µM
[1]
  IC50: 0.081 µM
HeLa
  IC50: 21.9 µM
[2]
  Activity: inactive

## C=C[C@]1(C)CC[C@@H](C(=C)COC(=O)[C@H](C)NC(=O)CCC(=O)OCCCCOc2no[n+]([O-])c2S(=O)(=O)c2ccccc2)C[C@H]1C(=C)C
SGC-7901
  IC50: 11.8 µM
[1]
  IC50: 0.114 µM
HeLa
  IC50: 10.9 µM

## C=C[C@]1(C)CC[C@@H](C(=C)COC(=O)CCC(=O)OCCOc2no[n+]([O-])c2S(=O)(=O)c2ccccc2)C[C@H]1C(=C)C
[3]
  Activity: 10.16%
[4]
  Activity: 47.99%
[5]
  Activity: 0.19%
[6]
  Activity: 31.68%
H22 [7]
  inhibition in vivo at 60 mg/kg: 64.8%
[8]
  Activity: 25.04%
SGC-7901
  IC50: 3.18 µM
[9]
  inhibition: Dose-dependent effect
[10]
  Activity: 8.16%
L02
  IC50: 30.4 µM
[11]
  viability at 0.0005 µM: 80.4%
[12]
  Activity: 33.35%
Homo sapiens [13]
  inhibition: Dose-dependent effect
Homo sapiens [14]
  inhibition: Dose-dependent effect
[15]
  Activity: 26.96%
U-87MG ATCC
  Activity: Dose-dependent effect
[16]
  viability at 0.002 µM: 46%
[1]
  IC50: 0.002 µM
Mus musculus [17]
  Activity: 21.6 g
[18]
  viability at 0.001 µM: 64.9%
H22 [19]
  TGI: Dose-dependent effect
[20]
  Activity: 9.91%
[21]
  Activity: 0.25%
[22]
  Activity: 25.03%
Mus musculus [23]
  Activity: 20.9 g
[24]
  Activity: 50.4%
[25]
  Activity: 1.25%
[26]
  Activity: 34.97%
[27]
  Activity: 22.91%
Homo sapiens [28]
  inhibition: Dose-dependent effect
HeLa
  IC50: 4.94 µM
[2]
  Activity: Active
H22 [29]
  inhibition in vivo at 30 mg/kg: 50.2%
[30]
  Activity: 26.69%
[31]
  Activity: 19.07%
[32]
  Activity: 34.63%

## C=C[C@]1(C)CC[C@@H](C(=C)COC(=O)[C@H](Cc2ccccc2)NC(=O)CCC(=O)OCCCCOc2no[n+]([O-])c2S(=O)(=O)c2ccccc2)C[C@H]1C(=C)C
SGC-7901
  IC50: 9.97 µM
[1]
  IC50: 0.061 µM
HeLa
  IC50: 10.8 µM

## C=C[C@]1(C)CC[C@@H](C(=C)C)C[C@H]1C(=C)C
H22 [7]
  inhibition in vivo at 60 mg/kg: 49.6%
SGC-7901
  IC50: 236 µM
[1]
  IC50: 180 µM
Mus musculus [23]
  Activity: 20 g
HeLa
  IC50: 214 µM

## C=C[C@]1(C)CC[C@@H](C(=C)COC(=O)CNC(=O)CCC(=O)OCCCCOc2no[n+]([O-])c2S(=O)(=O)c2ccccc2)C[C@H]1C(=C)C
SGC-7901
  IC50: 15.3 µM
[1]
  IC50: 0.173 µM
HeLa
  IC50: 10.2 µM

## C=C[C@]1(C)CC[C@@H](C(=C)COC(=O)CCC(=O)OCCCCOc2no[n+]([O-])c2S(=O)(=O)c2ccccc2)C[C@H]1C(=C)C
SGC-7901
  IC50: 8.76 µM
[1]
  IC50: 0.007 µM
HeLa
  IC50: 10.9 µM

## C=C[C@]1(C)CC[C@@H](C(=C)COC(=O)[C@@H](NC(=O)CCC(=O)OCCCCOc2no[n+]([O-])c2S(=O)(=O)c2ccccc2)[C@@H](C)CC)C[C@H]1C(=C)C
SGC-7901
  IC50: 3.66 µM
[1]
  IC50: 0.01 µM
HeLa
  IC50: 4.25 µM
[2]
  Activity: Active

## C=C[C@]1(C)CC[C@@H](C(=C)COC(=O)CCC(=O)OCC#CCOc2no[n+]([O-])c2S(=O)(=O)c2ccccc2)C[C@H]1C(=C)C
SGC-7901
  IC50: 4.97 µM
[1]
  IC50: 0.085 µM
HeLa
  IC50: 3.78 µM

## O=C(O)CCC(=O)OCCOc1c(S(=O)(=O)c2ccccc2)no[n+]1[O-]
[1]
  IC50: 32.2 µM

## C=C[C@]1(C)CC[C@@H](C(=C)COC(=O)CCC(=O)OCCOCCOc2no[n+]([O-])c2S(=O)(=O)c2ccccc2)C[C@H]1C(=C)C
SGC-7901
  IC50: 4.66 µM
[1]
  IC50: 0.024 µM
HeLa
  IC50: 5.78 µM

## C=C[C@]1(C)CC[C@@H](C(=C)COC(=O)[C@@H]2CCCN2C(=O)CCC(=O)OCCCCOc2no[n+]([O-])c2S(=O)(=O)c2ccccc2)C[C@H]1C(=C)C
SGC-7901
  IC50: 9.49 µM
[1]
  IC50: 0.055 µM
HeLa
  IC50: 11.2 µM

## C=C[C@]1(C)CC[C@@H](C(=C)COC(=O)CCC(=O)OCCCCCCOc2no[n+]([O-])c2S(=O)(=O)c2ccccc2)C[C@H]1C(=C)C
SGC-7901
  IC50: 22.9 µM
[1]
  IC50: 0.154 µM
HeLa
  IC50: 23.2 µM
[2]
  Activity: inactive
